Measurements reported in patent US20070010671A1, “Novel quinazoline derivatives and methods of treatment related to the use thereof” (priority 2003, published 2007).

These compounds were tested against MCH receptor (Homo sapiens, UniProt Q99705) (assay: High throughput functional screening FLIPR/FDSS6000: inhibition of MCH-evoked intracellular Ca2+ changes). Settings: class by percent of control at 10^-7 M or IC50.
Type: cell-based
Outline: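 Antagonism is measured as inhibition of the intracellular calcium rise triggered by 50 nM MCH in cells bearing a constitutively active, non-endogenous form of the receptor. Cells are dye-loaded with Fluo4-AM and exposed to compound for 3 min at 37° C before agonist addition.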
For `CN(C)c1nc(N[C@H]2CC[C@@H](CNC(=O)Nc3ccccc3I)CC2)nc2ccccc12` [compound 500, N-[(cis-4-{[4-(dimethylamino)quinazolin-2-yl]amino}cyclohexyl)methyl]-N′-(2-iodophenyl)urea], the class was 1 (Class 1: The value of percent of control at 10^−7 M was less than 40% or the value of IC50 was less than 50 nM.).
For `Cc1ccc(CCNC(=S)NC[C@H]2CC[C@@H](Nc3nc(N(C)C)c4ccccc4n3)CC2)cc1` [compound 744], the class was 3 (Class 3: The value of percent of control at 10^−7 M was more than 60% or the value of IC50 was more than 200 nM.).
For `CCc1ccccc1NC(=S)N[C@H]1CC[C@@H](Nc2nc(N(C)C)c3ccccc3n2)CC1` [compound 216], the class was 1 (Class 1: The value of percent of control at 10^−7 M was less than 40% or the value of IC50 was less than 50 nM.).
`CN(C)c1nc(N[C@H]2CC[C@@H](NC(=S)Nc3ccc(F)cc3F)CC2)nc2ccccc12` [compound 211] was tested, and the class was 3 (Class 3: The value of percent of control at 10^−7 M was more than 60% or the value of IC50 was more than 200 nM.).
`CN(C)c1nc(N[C@H]2CC[C@@H](NC(=S)Nc3ccccc3I)CC2)nc2ccccc12` [compound 219] was tested, and the class was 2 (Class 2: The value of percent of control at 10^−7 M was from 40% to 60% or the value of IC50 was from 50 nM to 200 nM.).
In the case of `Cc1cc(NC(=O)N[C@H]2CC[C@@H](Nc3nc(N(C)C)c4ccccc4n3)CC2)c(C(F)(F)F)o1` [compound 347, N-(cis-4-{[4-(dimethylamino)quinazolin-2-yl]amino}cyclohexyl)-N′-[5-methyl-2-(trifluoromethyl)-3-furyl]urea], the class is reported as 1 (Class 1: The value of percent of control at 10^−7 M was less than 40% or the value of IC50 was less than 50 nM.).
With `CN(C)c1nc(N[C@H]2CC[C@@H](CNC(=O)Nc3ccc(Br)cc3Br)CC2)nc2ccccc12` [compound 477] the class was 3 (Class 3: The value of percent of control at 10^−7 M was more than 60% or the value of IC50 was more than 200 nM.).
For `Cc1cccc(C(C)(C)C)c1NC(=O)NC[C@H]1CC[C@@H](Nc2nc(N(C)C)c3ccccc3n2)CC1` [compound 515, N-(2-tert-butyl-6-methylphenyl)-N′-[(cis-4-{[4-(dimethylamino)quinazolin-2-yl]amino}cyclohexyl)methyl]urea], the class was 1 (Class 1: The value of percent of control at 10^−7 M was less than 40% or the value of IC50 was less than 50 nM.).
`CCCCc1ccc(NC(=S)NC[C@H]2CC[C@@H](Nc3nc(N(C)C)c4ccccc4n3)CC2)cc1` [compound 705] was tested, and the class was 3 (Class 3: The value of percent of control at 10^−7 M was more than 60% or the value of IC50 was more than 200 nM.).
For `CN(C)c1nc(N[C@H]2CC[C@@H](CNC(=O)Nc3c(F)cc(Br)cc3Br)CC2)nc2ccccc12` [compound 476, N-(2,4-dibromo-6-fluorophenyl)-N′-[(cis-4-{[4-(dimethylamino)quinazolin-2-yl]amino}cyclohexyl)methyl]urea], the class was 1 (Class 1: The value of percent of control at 10^−7 M was less than 40% or the value of IC50 was less than 50 nM.).
With `CN(C)c1nc(N[C@H]2CC[C@@H](NC(=S)NCC3CCCCC3)CC2)nc2ccccc12` [compound 286, N-(cyclohexylmethyl)-N′-(cis-4-{[4-(dimethylamino)quinazolin-2-yl]amino}cyclohexyl)thiourea] the class was 2 (Class 2: The value of percent of control at 10^−7 M was from 40% to 60% or the value of IC50 was from 50 nM to 200 nM.).
For `COc1ccc(OC)c(CCNC(=S)NC[C@H]2CC[C@@H](Nc3nc(N(C)C)c4ccccc4n3)CC2)c1` [compound 720], the class was 3 (Class 3: The value of percent of control at 10^−7 M was more than 60% or the value of IC50 was more than 200 nM.).
With `Cc1noc(-c2ccccc2)c1NC(=O)N[C@H]1CC[C@@H](Nc2nc(N(C)C)c3ccccc3n2)CC1` [compound 354, N-(cis-4-{[4-(dimethylamino)quinazolin-2-yl]amino}cyclohexyl)-N′-(3-methyl-5-phenylisoxazol-4-yl)urea] the class was 1 (Class 1: The value of percent of control at 10^−7 M was less than 40% or the value of IC50 was less than 50 nM.).

Same assay, conditions: class by percent of control at 10^-7 M or by IC50; read-out: class
For `CSc1ccc(NC(=S)N[C@H]2CC[C@@H](Nc3nc(N(C)C)c4ccccc4n3)CC2)cc1` [compound 182, N-(cis-4-{[4-(dimethylamino)quinazolin-2-yl]amino}cyclohexyl)-N′-[4-(methylthio)phenyl]thiourea], the IC50 was 50 to 200 nM.
`CN(C)c1nc(N[C@H]2CC[C@@H](NC(=O)NCc3ccc(Cl)cc3Cl)CC2)nc2ccccc12` [compound 78, N-(2,4-dichlorobenzyl)-N′-(cis-4-{[4-(dimethylamino)quinazolin-2-yl]amino}cyclohexyl)urea] gave an IC50 of under 50 nM.
`CN(C)c1nc(N[C@H]2CC[C@@H](NC(=S)NC(C)(C)C)CC2)nc2ccccc12` [compound 199] was tested, and the IC50 was over 200 nM.
`CCC[C@H]1CC[C@H](c2ccc(NC(=S)N[C@H]3CC[C@@H](Nc4nc(N(C)C)c5ccccc5n4)CC3)cc2)CC1` [compound 177] gave an IC50 of over 200 nM.
`COc1ccc(Cl)cc1NC(=O)N[C@H]1CC[C@@H](Nc2nc(N(C)C)c3ccccc3n2)CC1` [compound 835] showed an IC50 of over 200 nM.
In the case of `CN(C)c1nc(N[C@H]2CC[C@@H](NC(=O)Nc3cc(Cl)ccc3Cl)CC2)nc2ccccc12` [compound 26], the IC50 is reported as over 200 nM.
`CCCCCNC(=O)N[C@H]1CC[C@@H](Nc2nc(N(C)C)c3ccccc3n2)CC1` [compound 54, N-(cis-4-{[4-(dimethylamino)quinazolin-2-yl]amino}cyclohexyl)-N′-pentylurea] gave an IC50 of under 50 nM.
With `CN(C)c1nc(N[C@H]2CC[C@@H](NC(=O)Nc3ccccc3Cc3ccccc3)CC2)nc2ccccc12` [compound 86] the IC50 was over 200 nM.

Same assay, conditions: class by percent of control at 10^−7 M or by IC50; read-out: class
`Cc1ccc(Cl)cc1CNC(=O)[C@H]1CC[C@@H](Nc2nc(N(C)C)c3ccccc3n2)CC1` [Example 1145, cis-N-(5-chloro-2-methylbenzyl)-4-{[4-(dimethylamino)quinazolin-2-yl]amino}cyclohexanecarboxamide] gave an IC50 of 50 to 200 nM.
For `CN(C)c1nc(N[C@H]2CC[C@@H](C(=O)NCc3ccc(Br)cc3F)CC2)nc2ccccc12` [Example 1162, cis-N-(4-bromo-2-fluorobenzyl)-4-{[4-(dimethylamino)quinazolin-2-yl]amino}cyclohexanecarboxamide], the IC50 was under 50 nM.
`CC(C)CC(=O)Nc1cccc(C(=O)N[C@H]2CC[C@@H](Nc3nc(N(C)C)c4ccccc4n3)CC2)c1` [Example 1201, N-(cis-4-{[4-(dimethylamino)quinazolin-2-yl]amino}cyclohexyl)-3-[(3-methylbutanoyl)amino]benzamide] showed an IC50 of 50 to 200 nM.
Work on `COc1ccc(C(NC(=O)[C@H]2CC[C@@H](Nc3nc(N(C)C)c4ccccc4n3)CC2)c2ccc(OC)cc2)cc1` [Example 1192, cis-N-[bis(4-methoxyphenyl)methyl]-4-{[4-(dimethylamino)quinazolin-2-yl]amino}cyclohexanecarboxamide] yielded an IC50 of under 50 nM.
`C[C@H](NC(=O)[C@H]1CC[C@@H](Nc2nc(N(C)C)c3ccccc3n2)CC1)c1cccc2ccccc12` [Example 1141, cis-4-{[4-(dimethylamino)quinazolin-2-yl]amino}-N-[(1S)-1-(1-naphthyl)ethyl]cyclohexanecarboxamide] showed an IC50 of under 50 nM.
`CN(C)c1nc(N[C@H]2CC[C@@H](NC(=O)Nc3cccc(Cl)c3Cl)CC2)nc2ccccc12` [Example 1013, N-(2,3-dichlorophenyl)-N′-(cis-4-{[4-(dimethylamino)quinazolin-2-yl]amino}cyclohexyl)urea] showed an IC50 of over 200 nM.
